Test results from patent publication US4083994A, “Choleretics” (Hisamitsu Pharmaceutical Co., Inc., priority 1975, dated 1978).

Legend:
bile secretion [1] = assay: Bile secretion test in rats; assay type: in vivo, male Wistar rats; details: rat, oral, volume in 1 h before administration = 100%
Description: Male Wistar rats weighing 200-210 g were fasted overnight and laparotomized under urethane anesthesia(Subcutaneous injection at a dose of 1.5 g/kg). A polyethylene tube was inserted into the common bile duct. The bile was collected for one hour from 30 minutes after the operation. Subsequently, the animals were given orally the test drugs, each 50 mg of which was suspended in 1 ml of 5% gum arabic aqueous solution. The bile was collected for 5 hours after the drug administration. The volume of the bile secreted at hourly intervals after the drug administration was expressed in %, defining the volume secreted for one hour before the drug administration as 100%, as shown in Table 1.
About 500 mg of p-menth-1-ene-8,9-diol were weighed accurately, and suspended in 10 ml of 5% gum arabic aqueous solution. […] Male rats of Wistar strain weighing 200 g were fasted overnight, anesthetized by subcutanous injection of 0.3 g of urethane and laparotomized. A polyethylene tube was inserted into the common bile duct. The bile was collected for one hour from 30 minutes after the operation. […]
About 500 mg of 9-acetoxy-p-menth-1-en-8-ol was weighed accurately and suspended in 10ml of 5% gum arabic aqueous solution. […] Male rats of Wistar strain weighing about 210 g were fasted overnight and anesthetized by subcutaneous injection of 0.32 g of urethane and then laparotomized. A polyethylene tube was inserted into the common bile duct, and the bile secreted through the duct was collected for one hour from 30 minutes after the operation. Subsequently, the choleretic of the present invention was administered orally in a volume of 1.05 ml (250 mg/kg).

bile secretion [2] = assay: Bile secretion test in dogs; assay type: in vivo, male mongrel dogs; details: into duodenum; for Bile volume secreted after administration: dog, volume in 1 h before administration = 100%; for Volume of bile secreted relative to one hour before administration: one dog (7.6 kg)
Description: Male mongrel dogs weighing approximately 8 kg were anesthetized with intravenous injection of […] of pentobarbital and further with subcutaneous injection of urethane at a dose of 1.0 g/kg and laparotomized. One canula was inserted into the common bile duct and directed to the liver for collection of the bile, and the other canula was inserted into the duodenum for the drug administration. The cholecystic duct was ligated and the gallbladder bile was aspirated with an injection syringe. The operation was finished by suture of the peritoneum. The bile was collected for one hour from 30 minutes after the operation. The animals were given the test drugs, each 50 mg of which was suspended in 1 ml of 5% gum arabic aqueous solution, through the canula for the drug administration. The bile was collected at hourly intervals for 6 hours after the drug administration. Defining the volume of the bile secreted for one hour before the drug administration as 100%, the volume secreted at hourly intervals after the drug administration was expressed in %, as shown in Table 2.
The mean volume secreted for one hour before the drug administration was 1798 μl.
This suspension was used as a choleretic of the present invention. A male mongrel dog weighing 8.8 kg was fasted overnight and anesthetized by subcutaneous injection of 1.0 mg/kg of urethane and laparotomized. One canula was inserted into the common bile duct and directed to the liver for collection of the bile, and the other canula was also inserted into the duodenum for the drug administration. Subsequently, the cholecystic duct was ligated and the gallbladder bile was aspirated with an injection syringe. The operation was finished after suturing the peritoneum. The bile was collected for one hour from 30 minutes after the operation, and subsequently, 44 ml of the test drug prepared above (250 mg/kg) was given through the canula for the drug administration. The volume of the bile secreted for the first, second and third one hour after the drug administration were 2.2, 2.1 and 1.9 times larger, respectively, than that secreted for one hour before the drug administration.
About 2.5 g of 9-propionyloxy-p-menth-1-en-8-ol was weighed accurately and suspended in 50 ml of 5% gum arabic aqueous solution. This suspension was used as a choleretic of the present invention. A male mongrel dog weighing 7.6 kg was fasted overnight and anesthetized by subcutaneous injection of 1.0 mg/kg of urethane and then laparotomized. One canula was inserted into the common bile duct and directed to the liver for collection of the bile, and the other canula into the duodenum for the drug administration. Subsequently, the cholecystic duct was ligated and the gallbladder bile was aspirated with an injection syringe. The operation was finished by suturing the peritoneum. The bile was collected for one hour from 30 minutes after the operation, and 50 ml (330 mg/kg) of the test drug prepared above was administered through the canula for the drug administration. The volume of the bile secreted for the first, second and third one hour after the drug administration was 3.2, 5.0 and 4.7 times larger, respectively, than that secreted for one hour before the drug administration.

[3] = Acute toxicity test in mice; details: mouse, in vivo, oral, parentheses: 95% confidence limit
Description: The test drugs were suspended in 5% gum arabic aqueous solution to make 50 mg/ml, and given orally male mice of ddY strain weighing 18-22 g and male rats of Wistar strain weighing 95-120 g. The LD50 values were calculated from the mortality of the animals that ensued during the 72 hours following the drug administration

CCC(=O)OCC(C)(O)C1CC=C(C)CC1 (stereo not drawn) [9-Propionyloxy-p-menth-1-en-8-ol, 9-propionyloxy-p-menth-1-en-8-ol]
Bile volume secreted after administration (bile secretion [1]; 110 mg/kg, 0-1 hr): 135% | Bile volume secreted after administration (bile secretion [1]; 110 mg/kg, 1-2 hr): 117% | Bile volume secreted after administration (bile secretion [1]; 110 mg/kg, 2-3 hr): 100% | Bile volume secreted after administration (bile secretion [1]; 110 mg/kg, 3-4 hr): 87% | Bile volume secreted after administration (bile secretion [1]; 110 mg/kg, 4-5 hr): 74% | Bile volume secreted after administration (bile secretion [1]; 330 mg/kg, 0-1 hr): 147% | Bile volume secreted after administration (bile secretion [1]; 330 mg/kg, 1-2 hr): 139% | Bile volume secreted after administration (bile secretion [1]; 330 mg/kg, 2-3 hr): 118% | Bile volume secreted after administration (bile secretion [1]; 330 mg/kg, 3-4 hr): 104% | Bile volume secreted after administration (bile secretion [1]; 330 mg/kg, 4-5 hr): 86% | Bile volume secreted after administration (bile secretion [1]; 990 mg/kg, 0-1 hr): 176% | Bile volume secreted after administration (bile secretion [1]; 990 mg/kg, 1-2 hr): 174% | Bile volume secreted after administration (bile secretion [1]; 990 mg/kg, 2-3 hr): 153% | Bile volume secreted after administration (bile secretion [1]; 990 mg/kg, 3-4 hr): 130% | Bile volume secreted after administration (bile secretion [1]; 990 mg/kg, 4-5 hr): 120% | Bile volume secreted after administration (bile secretion [2]; 330 mg/kg, 0-1 hr): 322% | Bile volume secreted after administration (bile secretion [2]; 330 mg/kg, 1-2 hr): 497% | Bile volume secreted after administration (bile secretion [2]; 330 mg/kg, 2-3 hr): 472% | Bile volume secreted after administration (bile secretion [2]; 330 mg/kg, 3-4 hr): 402% | Bile volume secreted after administration (bile secretion [2]; 330 mg/kg, 4-5 hr): 367% | Bile volume secreted after administration (bile secretion [2]; 330 mg/kg, 5-6 hr): 324% | Volume of bile secreted relative to one hour before administration (bile secretion [2]; 330 mg/kg, first hour): 3.2 times | Volume of bile secreted relative to one hour before administration (bile secretion [2]; 330 mg/kg, second hour): 5.0 times | Volume of bile secreted relative to one hour before administration (bile secretion [2]; 330 mg/kg, third hour): 4.7 times | LD50 at 72 h [3]: > 4000 mg/kg

C=C(C)C1CC=C(C)CC1 (stereo not drawn) [p-Mentha-1,8-diene, p-mentha-1,8-diene]
Bile volume secreted after administration (bile secretion [1]; 80 mg/kg, 0-1 hr): 101% | Bile volume secreted after administration (bile secretion [1]; 80 mg/kg, 1-2 hr): 100% | Bile volume secreted after administration (bile secretion [1]; 80 mg/kg, 2-3 hr): 100% | Bile volume secreted after administration (bile secretion [1]; 80 mg/kg, 3-4 hr): 94% | Bile volume secreted after administration (bile secretion [1]; 80 mg/kg, 4-5 hr): 91% | Bile volume secreted after administration (bile secretion [1]; 250 mg/kg, 0-1 hr): 104% | Bile volume secreted after administration (bile secretion [1]; 250 mg/kg, 1-2 hr): 108% | Bile volume secreted after administration (bile secretion [1]; 250 mg/kg, 2-3 hr): 109% | Bile volume secreted after administration (bile secretion [1]; 250 mg/kg, 3-4 hr): 108% | Bile volume secreted after administration (bile secretion [1]; 250 mg/kg, 4-5 hr): 104% | Bile volume secreted after administration (bile secretion [1]; 750 mg/kg, 0-1 hr): 111% | Bile volume secreted after administration (bile secretion [1]; 750 mg/kg, 1-2 hr): 125% | Bile volume secreted after administration (bile secretion [1]; 750 mg/kg, 2-3 hr): 128% | Bile volume secreted after administration (bile secretion [1]; 750 mg/kg, 3-4 hr): 131% | Bile volume secreted after administration (bile secretion [1]; 750 mg/kg, 4-5 hr): 128% | Bile volume secreted after administration (bile secretion [2]; 250 mg/kg, 0-1 hr): 220% | Bile volume secreted after administration (bile secretion [2]; 250 mg/kg, 1-2 hr): 213% | Bile volume secreted after administration (bile secretion [2]; 250 mg/kg, 2-3 hr): 185% | Bile volume secreted after administration (bile secretion [2]; 250 mg/kg, 3-4 hr): 110% | Bile volume secreted after administration (bile secretion [2]; 250 mg/kg, 4-5 hr): 85%

CCC(O)c1ccccc1 (racemic) [Felicur, phenylpropanol, reference compound]
Bile volume secreted after administration (bile secretion [1]; 250 mg/kg, 0-1 hr): 204% | Bile volume secreted after administration (bile secretion [1]; 250 mg/kg, 1-2 hr): 172% | Bile volume secreted after administration (bile secretion [1]; 250 mg/kg, 2-3 hr): 138% | Bile volume secreted after administration (bile secretion [1]; 250 mg/kg, 3-4 hr): 108% | Bile volume secreted after administration (bile secretion [1]; 250 mg/kg, 4-5 hr): 88% | Bile volume secreted after administration (bile secretion [2]; 50 mg/kg, 0-1 hr): 231% | Bile volume secreted after administration (bile secretion [2]; 50 mg/kg, 1-2 hr): 230% | Bile volume secreted after administration (bile secretion [2]; 50 mg/kg, 2-3 hr): 188% | Bile volume secreted after administration (bile secretion [2]; 50 mg/kg, 3-4 hr): 147%

CC(C)[C@@H]1CC[C@@H](C)C[C@H]1O [1-Menthol, 1-menthol, reference compound]
Bile volume secreted after administration (bile secretion [1]; 80 mg/kg, 0-1 hr): 134% | Bile volume secreted after administration (bile secretion [1]; 80 mg/kg, 1-2 hr): 114% | Bile volume secreted after administration (bile secretion [1]; 80 mg/kg, 2-3 hr): 100% | Bile volume secreted after administration (bile secretion [1]; 80 mg/kg, 3-4 hr): 95% | Bile volume secreted after administration (bile secretion [1]; 80 mg/kg, 4-5 hr): 89% | Bile volume secreted after administration (bile secretion [1]; 230 mg/kg, 0-1 hr): 139% | Bile volume secreted after administration (bile secretion [1]; 230 mg/kg, 1-2 hr): 137% | Bile volume secreted after administration (bile secretion [1]; 230 mg/kg, 2-3 hr): 133% | Bile volume secreted after administration (bile secretion [1]; 230 mg/kg, 3-4 hr): 117% | Bile volume secreted after administration (bile secretion [1]; 230 mg/kg, 4-5 hr): 111% | Bile volume secreted after administration (bile secretion [1]; 750 mg/kg, 0-1 hr): 152% | Bile volume secreted after administration (bile secretion [1]; 750 mg/kg, 1-2 hr): 143% | Bile volume secreted after administration (bile secretion [1]; 750 mg/kg, 2-3 hr): 138% | Bile volume secreted after administration (bile secretion [1]; 750 mg/kg, 3-4 hr): 122% | Bile volume secreted after administration (bile secretion [1]; 750 mg/kg, 4-5 hr): 111%
